The text below walks through data of publication PMC4636305, “Identification of Small-Molecule Inhibitors against Meso-2, 6-Diaminopimelate Dehydrogenase from Porphyromonas gingivalis” (PLoS ONE, 2015).

In brackets after ≈: the same amount, converted by molar mass. Entries after “also recorded” stand apart in the source; their conditions may differ. Like-named read-outs stand apart in the source and are kept apart here. Residues, ends and D or L forms follow the SMILES beside them.

Assay [1] deals with S. sanguinis. Kind of assay: MIC, broth microdilution. The following applies: for MIC: Streptococcus sanguinis, S. sanguinis, lacks the target m-Ddh, n = 3; for S. sanguinis MIC relative to MIC of P. gingivalis: selectivity. Format: cell-based, Streptococcus sanguinis.
Assay [2] deals with P. gingivalis. Put plainly: MBC, plating of MIC wells without visible growth. In kind it is cell-based, Porphyromonas gingivalis. The following applies: for MBC: Porphyromonas gingivalis, 168 h, plated 7 days, anaerobic, n = 3. As for the experimental part: Samples were plated on tryptic soy agar plates supplemented with 5% sheep blood (Becton, Dickinson, Franklin Lakes, NJ) and incubated at 37°C in anaerobic conditions for 7 days.

Assay [3] has as its target Meso-diaminopimelate dehydrogenase (m-Ddh) from P. gingivalis (Porphyromonas gingivalis, UniProt Q7MW40). Put plainly: m-Ddh kinetic assay, inhibitor screening and IC50 determination. In kind it is biochemical. The following applies: for IC50: 400 μM m-DAP, 180 μM NADP+, pH 10.5, 25°C, three independent experiments; for IC50 with addition of Triton-X 100 versus without: .01% Triton-X 100, test for aggregation-based inhibition; for inhibition at 3000 µM: read-out: % inhibition of enzymatic activity at 3 mM. As to the method:
(§1) The enzymatic activity for m-Ddh was determined by observing the standard oxidative deamination reaction of the substrate meso-diaminopimelate. The reaction contained 400 μM of meso-diaminopimelate (Sigma-Aldrich, St. Louis, MO), 180 μM NADP^+ (Sigma-Aldrich, St. Louis, MO), 200 mM glycine-KCl-KOH buffer (pH 10.5), and the enzyme in a final volume of 1 ml. The reaction was initiated with the addition of NADP^+. The reaction velocity was calculated from the increase in absorbance at 340 nm, spectrophotometrically monitored at 25°C, where one unit of enzyme was defined as the amount of enzyme catalyzing the formation of […] of NADPH per min.
A range of concentrations (0–3 mM) of each small-molecule compound inhibitor were added to the standard reaction and the percent of m-Ddh enzymatic inhibition was measured by the kinetic assay described above. Percent inhibition was determined by the formula: (rateofreactionnoinhibitor)−(rateofreactioninhibitor)/rateofreactionnoinhibitor×100. The concentration of each compound inhibitor which caused 50% enzymatic inhibition (IC50) was calculated using PRISM v6.04 software (Graphpad, San Diego, CA) from three independent experiments.

The subject of assay [4] is P. gingivalis. Kind of assay: MIC, broth microdilution. Format: cell-based, Porphyromonas gingivalis. As to the method:
Minimal Inhibitory Concentration (MIC) assays were performed using a broth microdilution method. P. gingivalis cells were grown overnight and the following day diluted 1/10 into fresh medium. Cells were allowed to grow to mid-log phase (OD600 ≈ 0.5). Compounds were serially diluted in 96-well microtiter plates (Jet Biofil, Genesee Scientific, San Diego, CA) and an aliquot of the cell suspension was added to each well with the compound inhibitor sample for a final cell count of 1×10^5 CFU/ml. Plates were incubated for five days at 37°C in anaerobic conditions.
For orientation: Dilution methods test growth across graded concentrations, often in twofold steps.

Assay [5] has as its system P. gingivalis cells. Kind of assay: SEM analysis of compound exposed cells. In kind it is cell-based, Porphyromonas gingivalis. The following applies: treated P. gingivalis cells; Compounds 4 and 5 at 5x MIC. As to the method: Untreated or treated P. gingivalis cells were deposited onto a 0.1 μm disposable Millipore filter to remove medium, and samples were fixed using 2% glutaraldehyde in 0.1 M sodium cacodylate buffer (pH 7.4) for 30 min, followed by 1% osmium tetroxide in 0.1 M sodium cacodylate buffer (pH 7.4). Samples embedded in the filters were then dehydrated in ethanol followed by hexamethyldisilazane (HMDS) and allowed to air-dry. The filters were sectioned and mounted onto stubs and coated with gold for three minutes (EMS– 550 Automated Sputter Coater, Electron Microscopy Sciences, Hatfield, PA). Micrographs were taken at 30,000× total magnification using a Zeiss EVO 50 XVP scanning electron microscope (Carl Zeiss, Peabody, MA).

Assay [6] deals with P. gingivalis. Put plainly: Time-kill assay. Format: cell-based, Porphyromonas gingivalis. The following applies: for reduction of viable P. gingivalis cell count: 5× MIC. As to the method:
P. gingivalis cells were grown overnight and the following day diluted 1/10 into fresh medium. Cells were allowed to grow to mid-log phase (OD600 ≈ 0.5) then diluted to a final cell suspension of 1×10^5 CFU/ml. Compounds were added at a concentration of 5x the MIC determined from the 96-well broth microdilution assay. Samples were taken at different time intervals (0, 0.25, 0.5, 1, 2, 3, 4, 6 and 24 hours) and plated on tryptic soy agar plates supplemented with 5% sheep blood (Becton, Dickinson, Franklin Lakes, NJ) using an automated Eddy Jet spiral plater (Neutec Group, Farmingdale, NY). Plates were incubated at 37°C in anaerobic conditions for 7 days.

For assay [7], the system named is m-Ddh. Kind of assay: Determination of kinetic parameters of m-Ddh. In kind it is biochemical, Porphyromonas gingivalis. The following applies: pH 10.5, 25°C, other substrate held at 0.5 mM; for Km: read-out: apparent Km. As for the experimental part: as §1
Initial velocity measurements for m-DAP and NADP^+ were determined at 25°C in a similar reaction for the standard oxidative deamination reaction assay. The reaction contained 200 mM glycine-KCl-KOH buffer (pH 10.5) with m-DAP as the variable substrate with concentrations between 0.001 mM and 1 mM and NADP^+ held constant at a saturating concentration of 0.5 mM or NADP^+ as the variable substrate with concentrations between 0.01 mM to 1 mM and m-DAP held constant at 0.5 mM. Km and Vmax values were determined through non-linear fitting. All assays were performed in triplicates and non-linear fitting Michaelis-Menten data were calculated from Graphpad Prism version 5.04 (Graphpad, San Diego, CA).

Assay [8] deals with m-Ddh. On the set-up: method as in PMID 21616177. The following applies: C. thermocellum m-Ddh; cited from earlier work.
[9] abbreviates: compound at 3 mM, initial screen.
Where [10] appears, read: Porphyromonas gingivalis, 120 h, five days, 37°C, anaerobic, n = 3.

Chain of Meso-diaminopimelate dehydrogenase (m-Ddh) from P. gingivalis (Q7MW40 entry or part of it): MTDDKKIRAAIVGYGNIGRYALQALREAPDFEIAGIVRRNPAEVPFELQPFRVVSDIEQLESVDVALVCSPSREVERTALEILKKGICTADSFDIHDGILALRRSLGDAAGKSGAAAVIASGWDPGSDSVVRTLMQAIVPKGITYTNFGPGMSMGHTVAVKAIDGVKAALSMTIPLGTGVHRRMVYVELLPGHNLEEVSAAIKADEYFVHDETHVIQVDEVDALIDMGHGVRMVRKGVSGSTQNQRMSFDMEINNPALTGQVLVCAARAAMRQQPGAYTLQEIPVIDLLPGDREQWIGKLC

With `COc1ccc(S(=O)(=O)Nc2nc3ccccc3nc2Nc2cccc(C(=O)O)c2)cc1` [Compound 4], in assay [1], the MIC (usually the least concentration at which growth counts as inhibited) stood at 1740 µM (≈ 784 µg/mL) and the “S. sanguinis MIC relative to MIC of P. gingivalis” value amounted to 7 ×. Besides, in assay [2], the “MBC to MIC ratio” value is given as “less than 4” and the minimum bactericidal concentration (MBC) (usually the smallest concentration meeting the test's criterion for killing) is 374 µM (≈ 168 µg/mL). Further, in assay [3], the midpoint of inhibition, the IC50, lay at 157 ± 26 µM and the “IC50 with addition of Triton-X 100 versus without” value is “no difference in activity”. Also, the inhibition (commonly the change of the read-out against control, counted positive when it falls) at 3000 µM in assay [3] (setting [9]) is no less than 90%. The same molecule displayed a minimal inhibitory concentration (MIC) in assay [4] (setting [10]) of 250 µM (≈ 113 µg/mL). For the same molecule, the “cellular structure by SEM” value in assay [5] is on record as “alteration of the cellular structure”. Also, in assay [6] (5x MIC, after six hours of treatment), the “P. gingivalis cell count” value is “maintained a low cell count”. For the same molecule, the “reduction of viable P. gingivalis cell count” value in assay [6] (within 6 h of exposure) is 2 log10 CFU /ml.
Consider `Cc1cc(S(=O)(=O)Nc2cc(SCCC(=O)O)c(O)c3ccccc23)ccc1F` [Compound 5], for which, in assay [1], the MIC came to 305 µM (≈ 133 µg/mL) and the “S. sanguinis MIC relative to MIC of P. gingivalis” value was “almost double”. Further, in assay [2], the “MBC to MIC ratio” value is recorded as “less than 4” and the MBC turned out to be 254 µM (≈ 111 µg/mL). Moreover, in assay [3], the midpoint of inhibition, the IC50, lay at 310 ± 23 µM and the “IC50 with addition of Triton-X 100 versus without” value is on record as “no difference in activity”. Besides, the inhibition at 3000 µM in assay [3] (setting [9]) is no less than 90%. Also, the minimal inhibitory concentration (MIC) in assay [4] (setting [10]) was determined as 167 µM (≈ 72.9 µg/mL). This molecule displayed an MIC in assay [4] (five days, 37°C, anaerobic, n = 3) of 167 µM (≈ 72.7 µg/mL). Further, the “cellular structure by SEM” value in assay [5] is reported as “alteration of the cellular structure”. The “P. gingivalis cell viability” value in assay [6] (5x MIC, after two hours of exposure) is “no viable cell count; also recorded: complete elimination”. The “reduction of viable P. gingivalis cell count” value in assay [6] (after 2 h of exposure) was 5 log10 CFU/ml.
On to `O=C(O)CCC(=O)Nc1ccc(S(=O)(=O)Nc2cnc3ccccc3n2)cc1` [Compound 6], for which the MIC in assay [1] is 3310 µM (≈ 1330 µg/mL); in assay [4] (setting [10]), 2820 µM (≈ 1130 µg/mL); in assay [4] (Porphyromonas gingivalis, bound stated) it was greater than 2000 µM. Besides, the IC50 – broadly, the point on the concentration scale where inhibition reaches its midpoint – in assay [3] turned out to be 356 ± 16 µM. Further, in assay [3], the “IC50 with addition of Triton-X 100 versus without” value is recorded as “no difference in activity”. The inhibition at 3000 µM in assay [3] (setting [9]) is no less than 90%.
On to `CCC[C@@H]1CN(c2nc(C)ccc2C(=O)O)C[C@H]1C(=O)O` [Compound 7], for which the IC50 in assay [3] is 1160 ± 175 µM. In addition, the inhibition at 3000 µM in assay [3] (setting [9]) was no less than 90%.
Take `NCc1[nH]cc(CCC(=O)O)c1CC(=O)O` [Compound 8]: the “% inhibition of enzymatic activity at 3 mM” value in assay [3] (setting [9]) is on record as “No inhibition at 3 mM”.
The same measure, in the same setting: next, `O=C(O)c1sccc1S(=O)(=O)Nc1cccc2[nH]ncc12` [Compound 9]: “No inhibition at 3 mM”.
`N[C@@H](CC(=O)O)C(=O)N[C@@H](Cc1ccccc1)C(=O)O` [Compound 10] (H-Asp-Phe-OH): the inhibition at 3000 µM in assay [3] was found to be 2%.
Turning to `O=C(O)CCCC(O)(O)C(=O)O` [Compound 11], in assay [3] (setting [9]), the inhibition at 3000 µM stood at 13%.
Regarding `O=C(O)c1cccc(S(=O)(=O)Nc2ccnc(Sc3ccccn3)c2)c1` [Compound 12], in assay [3] (setting [9]), the “% inhibition of enzymatic activity at 3 mM” value was “No inhibition at 3 mM”.
Regarding `O=C(O)c1cccc(NS(=O)(=O)c2ccc(O)c(C(=O)O)c2)c1` [Compound 13], the inhibition at 3000 µM in assay [3] (setting [9]) worked out at 6%.
In the case of `Cc1n[nH]c(C)c1S(=O)(=O)Nc1cccc(NS(=O)(=O)c2ccccc2)c1` [Compound 14], in assay [3] (setting [9]), the inhibition at 3000 µM was determined as 17%.
`NC(=O)c1ccc[n+]([C@@H]2O[C@H](COP(=O)([O-])OP(=O)(O)OC[C@H]3O[C@@H](n4cnc5c(N)ncnc54)[C@H](OP(=O)(O)O)[C@@H]3O)[C@@H](O)[C@H]2O)c1` [NADP^+]: in assay [7], the Vmax (as a rule, the rate approached at saturating substrate) amounted to 91.95 nmol/s and the Km (usually the substrate concentration at which the rate is half of its maximum) is 60 µM. Moreover, the Km in assay [8] was 90 µM.
As to `CC1(C)S[C@@H]2[C@H](NC(=O)[C@H](N)c3ccccc3)C(=O)N2[C@H]1C(=O)O` [ampicillin, reference compound], the “cellular structure by SEM” value in assay [5] is given as “altered morphology”.
On to `N[C@H](CCC[C@H](N)C(=O)O)C(=O)O` [m-DAP, meso-diaminopimelate], for which, in assay [7], the Vmax worked out at 130.1 nmol/s and the Km was determined as 370 µM.
